What all share (type): physicochemical
Data set [1] is described as follows: Storage stability of the compositions for two months (viscosity, colour, odour, HPLC content, crystals). As to conditions: two months at room temperature and at 45° C. The procedure:
After storage for two months at room temperature and at 45° C., no change in the viscosity or colour of the composition and no release of odour were observed.

Data set [2] is described as follows: Amount of aminophenol derivative dissolved in various solubilizing agents. Here is the method:
The amount of aminophenol derivative (N-ethyloxyearbonyl-4-para-aminophenol, or EPAP, and N-cholesteryloxyearbonyl-4-para-aminophenol, or CPAP) which can be dissolved in various solubilizing agents, at 60° C., was compared in Tables 1 and 2 below.

Assay in data set [3]: as above
The following applies: in caprylic/capric triglycerides, at room temperature.

Setting [4] is: in composition of Example 2 (fluid emulsion).
Setting [5] is: in composition of Example 3 (bleaching fluid).
The mark [6] stands for this setting: in apricot kernel oil, at 60° C.
[7] abbreviates: in mixture of oxyethylenated (26 EO) oxypropylenated (26 PO) butyl alcohol and oxyethylenated (40 EO) hydrogenated castor oil.
The mark [8] stands for this setting: in oxyethylenated (7 EO) hydrogenated castor oil, at 60° C.
[9] abbreviates: in oxyethylenated (20 EO) oxypropylenated (5 PO) cetyl alcohol, at 60° C.
The mark [10] stands for this setting: in oxyethylenated (20 EO) sorbitan monostearate, at 60° C.
[11] abbreviates: in oxyethylenated (40 EO) hydrogenated castor oil, at 60° C.
[12] abbreviates: in oxyethylenated (60 EO) hydrogenated castor oil, at 60° C.
Setting [13] is: in composition of Example 1 (fluid emulsion).

Regarding `CC(C)CCC[C@@H](C)[C@H]1CC[C@H]2[C@@H]3CC=C4C[C@@H](OC(=O)Nc5ccc(O)cc5)CC[C@]4(C)[C@H]3CC[C@]12C` [CPAP, N-cholesteryloxycarbonyl-4-para-aminophenol], the “Decrease in compound content, as determined by HPLC” value in data set [1] (setting [4]) and in data set [1] (setting [5]) was “no decrease” throughout. In addition, the “Formation of crystals of the compound” value in data set [1] (setting [4]) and in data set [1] (setting [5]) was “no formation of crystals” in each case. In addition, the Amount dissolved is 4.8% in data set [2] (in Laureth-4, at 60° C.); 4.8% in data set [2] (in Laureth-23, at 60° C.); “insoluble” in data set [2] (setting [6]); 0.5% in data set [2] (in caprylic/capric triglycerides, at 60° C.); “insoluble” in data set [2] (in hexyldecanol, at 60° C.); “insoluble” in data set [2] (in mineral oil, at 60° C.). Also, the Amount dissolved amounted to 14.2% in data set [2] (setting [7]); 0.5% in data set [2] (in octyldodecanol, at 60° C.); 12.5% in data set [2] (setting [8]); 14.2% in data set [2] (setting [9]); 14.2% in data set [2] (setting [10]); 16.5% in data set [2] (setting [11]). The Amount dissolved in data set [2] (setting [12]) was determined as 16.5%.

With `CCOC(=O)Nc1ccc(O)cc1` [EPAP, N-ethyloxycarbonyl-4-para-aminophenol], in data set [3], the Recrystallization after dissolution result is on record as “recrystallizes”. In addition, the “Decrease in compound content, as determined by HPLC” value in data set [1] (setting [13]) was “no decrease”. Moreover, the “Formation of crystals of the compound” value in data set [1] (setting [13]) is reported as “no formation of crystals”. The Amount dissolved in data set [2] (in Laureth-4, at 60° C.) was 25%; in data set [2] (setting [6]), “insoluble”; in data set [2] (in caprylic/capric triglycerides, 80° C.) it was 4.7% (80° C.);; in data set [2] (in hexyldecanol, at 60° C.), “insoluble”; in data set [2] (in mineral oil, at 60° C.) it was “insoluble”; in data set [2] (in mixture of oxyethylenated (9 EO) tridecyl alcohol and oxyethylenated (40 EO) hydrogenated castor oil), 25%. In addition, the Amount dissolved is 20% in data set [2] (setting [7]); “insoluble” in data set [2] (in octyldodecanol, at 60° C.); 16.6% in data set [2] (setting [8]); 16.5% in data set [2] (setting [9]); 50% in data set [2] (setting [10]); 16.5% in data set [2] (setting [11]). Moreover, the Amount dissolved in data set [2] (setting [12]) worked out at 16.5%.

For the origin of these results see US7056498B2, “Composition containing aminophenol derivative, use thereof, and process for dissolving aminophenol derivative” (L'Oreal, priority 1999, dated 2006).
